Results reported in BigSolDB 2.1.

CC(C)[C@@H](C)[C@@H](O)[C@H](O)[C@@H](C)[C@H]1CC[C@H]2[C@@H]3COC(=O)[C@H]4C[C@H](O)[C@H](O)C[C@]4(C)[C@H]3CC[C@]12C
solubility (mole fraction)
Conditions | 283.15 K | 288.15 K | 293.15 K | 298.15 K | 303.15 K | 308.15 K | 313.15 K | 318.15 K | 323.15 K
in acetone | 0.00144 | 0.00176 | 0.00207 | 0.0024 | 0.00273 | 0.00303 | 0.00334 | 0.00365 | 0.00405
in acetonitrile | 0.000162 | 0.000206 | 0.000258 | 0.000322 | 0.000399 | 0.000491 | 0.0006 | 0.000728 | 0.000879
in ethanol | 0.00219 | 0.00241 | 0.00296 | 0.0032 | 0.00356 | 0.00409 | 0.00476 | 0.00551 | 0.00634
in isopropanol | 0.00136 | 0.00169 | 0.00209 | 0.00256 | 0.00312 | 0.00396 | 0.00464 | 0.00564 | 0.00667
